# ChEMBL document CHEMBL5614415, “Recent advances and challenges of revolutionizing drug-resistant tuberculosis treatment” (Eur J Med Chem, 2024)
# Experiments:
# [1] = system: Mycobacterium tuberculosis; experiment: Antimicrobial activity against Mycobacterium tuberculosis H37Rv ATCC 27294 assessed as inhibition of bacterial growth incubated for […] by broth dilution method; format: functional; details: time lower 18 hrs
# [2] = system: Mycobacterium tuberculosis; experiment: Antimycobacterial activity against Mycobacterium tuberculosis H37Rv assessed as reduction in bacterial growth after 7 days by resazurin based fluorescence assay; format: functional; details: 168 h, time 7 day
# [3] = system: Mycobacterium tuberculosis; experiment: Antibacterial activity against Mycobacterium tuberculosis H37Rv; format: functional
# [4] = system: Mycobacterium tuberculosis; experiment: Antibacterial activity against Mycobacterium tuberculosis H37Rv assessed as reduction in bacterial growth measured after 7 days by broth micro-dilution method; format: functional; details: 168 h, time 7 day
# [5] = system: Mycobacterium tuberculosis; experiment: Antimycobacterial activity against Mycobacterium tuberculosis H37Rv ATCC 27294 assessed as reduction in bacterial cell growth by resazurin reduction method; format: functional
# [6] = system: Mycobacterium tuberculosis; experiment: Antibacterial activity against Mycobacterium tuberculosis ATCC 35801 assessed as inhibition of bacterial growth incubated for 7 days by resazurin microtiter assay; format: functional; details: ATCC 35801, 168 h, time 7 day
# [7] = system: Mycobacterium tuberculosis; experiment: Antibacterial activity against Mycobacterium tuberculosis H37Rv assessed as bacterial growth inhibition by CLSI broth microdilution method; format: functional
# [8] = system: Mycobacterium tuberculosis; experiment: Antimycobacterial activity against Mycobacterium tuberculosis […] assessed as reduction in bacterial growth; format: functional
# Cytochrome P450 2C9 = Cytochrome P450 2C9 (Homo sapiens, UniProt P11712); experiment: Inhibition of CYP2C9 (unknown origin); format: ADME
# [9] = system: Mycobacterium tuberculosis; experiment: Antibacterial activity against wild type Mycobacterium tuberculosis H37Rv infected in BALB/c mouse assessed as log reduction in colony forming units at 20 mg/kg; format: functional
# [10] = system: Mycobacterium tuberculosis; experiment: Antimycobacterial activity against Mycobacterium tuberculosis H37Rv assessed as reduction in bacterial cell growth by resazurin reduction method; format: functional
# [11] = system: Mycobacterium tuberculosis; experiment: Antitubercular activity against Mycobacterium tuberculosis H37Ra assessed as inhibition of bacterial growth incubated for 7 days by Microdilution Alamar Blue assay; format: functional; details: 168 h, time 7 day
# Salmonella typhimurium = experiment: Antibacterial activity against Salmonella typhimurium DT104 assessed as inhibition of bacterial growth incubated for 18 hrs by CLSI protocol based microbroth dilution method; format: functional, Salmonella enterica subsp. enterica serovar Typhimurium; details: Salmonella enterica
# [12] = system: Mycobacterium tuberculosis; experiment: Antimycobacterial activity against Mycobacterium tuberculosis; format: functional
# Mycobacterium avium = experiment: Antimycobacterial activity against Mycobacterium avium assessed as bacterial growth inhibtion; format: functional
# [13] = system: Mycobacterium tuberculosis; experiment: Antimycobacterial activity against Mycobacterium tuberculosis assessed as reduction in bacterial growth; format: functional
# Staphylococcus aureus = experiment: Antibacterial activity against Staphylococcus aureus assessed as reduction in microbial growth by CLSI protocol based broth micro-dilution method; format: functional
# [14] = system: Mycobacterium tuberculosis; experiment: Antimycobacterial activity against Mycobacterium tuberculosis H37Rv ATCC 27294 assessed as reduction in bacterial cell growth; format: functional
# [15] = system: Mycobacterium tuberculosis; experiment: Antimycobacterial activity against Mycobacterium tuberculosis assessed as bacterial growth inhibition; format: functional
# [16] = system: Mycolicibacterium smegmatis; experiment: Antimicrobial activity against Mycobacterium smegmatis ATCC 700084 assessed as bacterial growth inhibition; format: functional
# [17] = system: Mycolicibacterium smegmatis; experiment: Antimycobacterial activity against Mycobacterium smegmatis mc2 155 assessed as reduction in bacterial cell growth by resazurin reduction method; format: functional
# Sequence of Cytochrome P450 2C9 (P11712 whole entry): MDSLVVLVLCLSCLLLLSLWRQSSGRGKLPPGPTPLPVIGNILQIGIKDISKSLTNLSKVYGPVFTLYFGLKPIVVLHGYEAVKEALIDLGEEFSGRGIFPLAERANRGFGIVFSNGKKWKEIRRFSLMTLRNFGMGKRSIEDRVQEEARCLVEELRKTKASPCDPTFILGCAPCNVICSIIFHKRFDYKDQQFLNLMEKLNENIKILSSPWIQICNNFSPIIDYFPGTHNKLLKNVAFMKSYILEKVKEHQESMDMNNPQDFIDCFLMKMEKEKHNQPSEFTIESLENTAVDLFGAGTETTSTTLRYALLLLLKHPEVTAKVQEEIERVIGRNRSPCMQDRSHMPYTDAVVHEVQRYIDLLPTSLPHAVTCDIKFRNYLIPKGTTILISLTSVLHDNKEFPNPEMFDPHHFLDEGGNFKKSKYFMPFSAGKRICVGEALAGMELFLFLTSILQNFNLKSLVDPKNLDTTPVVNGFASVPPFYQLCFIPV
smiles,measurement,setting,value
C(=C\c1cc2ccc(C3=NCCN3)cc2[nH]1)/c1cc2ccc(C3=NCCN3)cc2[nH]1,MIC50,[1],0.03 µg/mL
c1cc2cc(-c3ccc(-c4cc5ccc(C6=NCCN6)cc5[nH]4)cc3)[nH]c2cc1C1=NCCN1,MIC50,[1],0.04 µg/mL
c1cc2cc(-c3ccc4cc(C5=NCCN5)[nH]c4c3)[nH]c2cc1C1=NCCN1,MIC50,[1],0.08 µg/mL
c1cc2cc(-c3ccc4cc(-c5ccc6oc(C7=NCCN7)cc6c5)[nH]c4c3)[nH]c2cc1C1=NCCN1,MIC50,[1],0.02 µg/mL
O=C(Nc1nc(-c2ccccn2)cs1)c1ccc(Cl)s1,MIC50,[2],0.25 µg/mL
O=[N+]([O-])c1cn2c(n1)OC[C@@H](OCc1ccc(-c3ccc(C(F)(F)F)cc3)nc1)C2,MIC50,[3],< 0.015 µg/mL
c1ccc(CC2CCN(CC3CCN(CC45CC6CC(CC(C6)C4)C5)CC3)CC2)cc1,MIC90,[4],7 µg/mL
CCN(CC)CCOc1c(C(=O)OC)c2c3c(oc2c2ccccc12)C(=O)c1ccccc1C3=O,MIC50,[5],0.19 µg/mL
OC1CCN(C2CCN(CC34CC5CC(CC(C5)C3)C4)CC2)CC1,MIC90,[4],> 10 µg/mL
CCNC(=O)Nc1nc2cc(-c3cnc(C(C)(C)O)nc3)c(F)c([C@H]3CCCO3)c2[nH]1,MIC50,[6],0.03 µg/mL
CC1(C)CCC(NC(=O)c2cc3c(Cl)cc(Cl)cc3[nH]2)CC1,MIC50,[7],0.005 µg/mL
CCCCc1ccc(NC(=O)C2=CCN(C)[C@@H]([C@H](O[C@@H]3O[C@H](CN)[C@@H](O)[C@H]3O)[C@H]3O[C@@H](n4ccc(=O)[nH]c4=O)[C@H](O)[C@@H]3O)C(=O)N2C)cc1,MIC50,[8],3.13 µg/mL
CCOC(=O)NC(=O)c1ccsc1NC(=O)c1ccn2cnnc2c1,IC50,Cytochrome P450 2C9,> 10000 nM
CCOc1cc([C@](O)(CCN(C)C)[C@@H](c2cc3cc(Br)ccc3nc2OC)c2cccc(OC)c2F)cc(OC)n1,log(activity),[9],1.5
CCOC(=O)NC(=O)c1cc(F)sc1NC(=O)c1nc2ccccc2s1,IC50,Cytochrome P450 2C9,150 nM
CC(=O)N1/C(=C/c2ccc(Oc3ccc(Cl)cc3)cc2)C(=O)c2cc(Cl)ccc21,MIC99,[10],0.13 µg/mL
CC(=O)N1/C(=C/c2ccc(Oc3ccc(Cl)cc3)cc2)C(=O)c2ccccc21,MIC99,[10],0.18 µg/mL
CC(=O)N1/C(=C/c2ccc(-c3ccccc3)cc2)C(=O)c2ccccc21,MIC99,[10],0.38 µg/mL
CC(=O)N1/C(=C/c2ccc(-c3ccsc3)cc2)C(=O)c2ccccc21,MIC99,[10],0.16 µg/mL
CC(=O)N1/C(=C/c2cccc(-c3ccccc3)c2)C(=O)c2ccccc21,MIC99,[10],0.69 µg/mL
CC(=O)N1/C(=C/c2ccc(Br)cc2)C(=O)c2ccccc21,MIC99,[10],0.42 µg/mL
COC(=O)c1ccsc1NC(=O)C1CCCN1 (configuration not stated),MIC50,[11],0.8 µg/mL
OCC1CCCN1CC1CCN(CC23CC4CC(CC(C4)C2)C3)CC1 (configuration not stated),MIC90,[4],> 10 µg/mL
CCOC(=O)NC(=O)c1ccsc1NC(=O)c1nc2cccnc2s1,IC50,Cytochrome P450 2C9,130 nM
COc1c(N2CC3(CC3)[C@@](C)(N)C2)c(F)cc2c(=O)c(C(=O)O)cn(C3C[C@H]3F)c12 (some centres not stated),MIC90,Salmonella typhimurium,0.06 µg/mL
CN[C@@H]1[C@H](O)[C@H](NC)[C@H]2O[C@@]3(O)[C@H](NC(=O)Cc4ccc(Cl)cn4)C[C@@H](C)C[C@H]3O[C@@H]2[C@H]1O,MIC50,[12],1.6 µg/mL
OC1CCN(CC2CCC(CNCc3ccccc3)CC2)CC1 (configuration not stated),MIC90,[4],> 12 µg/mL
O=C(OCc1ccccc1)c1ccsc1NC(=O)C1CCCN1 (configuration not stated),MIC50,[11],1.3 µg/mL
CN[C@@H]1[C@H](O)[C@H](NC)[C@H]2O[C@@]3(O)[C@H](NC(=O)Cc4ccc(F)cn4)C[C@@H](C)C[C@H]3O[C@@H]2[C@H]1O,MIC50,[12],0.8 µg/mL
OC1CCN(C2CCN(Cc3ccccc3)CC2)CC1,MIC90,[4],> 10 µg/mL
OC1CCN(CC2CCN(Cc3ccccc3)CC2)CC1,MIC90,[4],6.2 µg/mL
CCCCCCCCCC(=O)C[C@@H]1[C@H](OC)C([C@@H](O[C@H]2OC(C(=O)N[C@H]3CCC[C@@H](C)NC3=O)=C[C@H](O)[C@@H]2O)C(N)=O)O[C@H]1n1ccc(=O)[nH]c1=O (some centres not stated),MIC50,[8],1 µg/mL
O=C(Oc1ccccc1)c1ccsc1NC(=O)C1CCCN1 (configuration not stated),MIC50,[11],2.4 µg/mL
OC1CCN(CC2CCN(CC34CC5CC(CC(C5)C3)C4)CC2)CC1,MIC90,[4],4 µg/mL
COc1nc2ccc(Br)cc2cc1[C@@H](c1ccccc1)[C@@](O)(CCN(C)C)c1cccc2ccccc12 [BEDAQUILINE],MIC50,Mycobacterium avium,0.01 µg/mL
same,MIC50,[13],0.01 µg/mL
C[C@]1(COc2ccc(N3CCC(Oc4ccc(OC(F)(F)F)cc4)CC3)cc2)Cn2cc([N+](=O)[O-])nc2O1 [DELAMANID],MIC50,[3],0.006 µg/mL
CN1CCN(c2ccc(N3C[C@H](CO)OC3=O)cc2F)C=N1 [DELPAZOLID],MIC50,Staphylococcus aureus,0.5 µg/mL
same,MIC50,[14],0.5 µg/mL
CC(=O)NC[C@H]1CN(c2ccc(N3CCOCC3)c(F)c2)C(=O)O1 [LINEZOLID],MIC50,Staphylococcus aureus,0.3 µg/mL
same,MIC50,[15],0.3 µg/mL
O=[N+]([O-])c1cn2c(n1)OC[C@@H](OCc1ccc(OC(F)(F)F)cc1)C2 [PRETOMANID],MIC50,[3],0.015 µg/mL
O=C1CCc2c(OC[C@]3(O)CCN(c4c(F)cc(Cl)cc4F)C[C@H]3O)ccc(F)c2N1 [QUABODEPISTAT],MIC50,[12],0.00024 µg/mL
CC(C)=CCC/C(C)=C/CNCCNC1C2CC3CC(C2)CC1C3 (configuration not stated) [SQ109],MIC50,[12],0.12 µg/mL
CC(=O)NC[C@H]1CN(c2ccc(N3CCSCC3)c(F)c2)C(=O)O1 [SUTEZOLID],MIC50,Staphylococcus aureus,0.03 µg/mL
same,MIC50,[15],0.03 µg/mL
COc1ncnc(Cn2cc(C(=O)NCCO)c3ncc(C)cc32)c1C [TBA-7371],MIC50,[8],0.28 µg/mL
COc1cc([C@](O)(CCN(C)C)[C@@H](c2cc3cc(Br)ccc3nc2OC)c2cccc(OC)c2F)cc(OC)n1 [TBAJ-587],MIC50,Mycobacterium avium,0.006 µg/mL
same,MIC50,[16],< 0.02 µg/mL
same,log(activity),[9],4.5
COc1cc([C@](O)(CCN(C)C)[C@@H](c2cc3cc(Br)ccc3nc2OC)c2cc(OC)nc(OC)c2OC)cc(OC)n1 [TBAJ-876],MIC50,Mycobacterium avium,5 µg/mL
CCc1nc2ccc(Cl)cn2c1C(=O)NCc1ccc(N2CCC(c3ccc(OC(F)(F)F)cc3)CC2)cc1 [TELACEBEC],MIC90,[17],0.0024 µg/mL
